In patent publication US20150136167A1, “METHOD OF TREATING HAIR” (priority 2012, published 2015):

Legend:
[1] = Solubility of actives at the 5% level; type: physicochemical
[2] = Hair straightening on dry hair switches (volume of switch image), Experiments 1 and 4
Protocol: Dark brown European wavy#6 switches of length 25 cm and weight 2 gms, were dosed with 2 ml each of 5% citric acid solutions at various pH's. They were combed straight and left to dry for at least 20 minutes. They were subsequently rinsed for 30 seconds under the tap. They were then combed straight and left to dry overnight. When dry the switches were combed straight and pictures taken. […] (Here volume refers to the projection of the switch image on to the screen and is given in mm^2).

[3] = Hair straightening with application to wet hair, Experiment 3
[4] = 5% solution at pH 2, 2 ml dosed on dry switch, left at least 20 min, rinsed, combed, dried overnight
[5] = 5% solution at pH 2, dosed on dry switch
[6] = 5% solution at pH 3, dosed on dry switch
[7] = 5% solution at pH 4, dosed on dry switch
[8] = 5% solution at pH 5, dosed on dry switch
[9] = 5% solution at pH 6, dosed on dry switch

Structure (SMILES) | Volume in mm^2 [2, 4] | % benefit over water [2, 5] | % benefit over water [2, 6] | Volume in mm^2 [2, 6] | other results
O=C(O)/C=C/C(=O)O [Fumaric acid] | – | – | – | – | solubility at the 5% level [1]: not soluble at the 5% level
O=C(O)CC(O)C(=O)O (stereo not drawn) [Malic acid] | 12426 mm^2 | 13.0% | – | – | –
O=C(O)CC(=O)O [Malonic acid] | 11220 mm^2 | 21.4% | 16.3% | 11950 mm^2 | –
O=C(O)C(O)c1ccccc1 (stereo not drawn) [Mandelic acid, reference compound] | 13545 mm^2 | 5.1% | – | – | –
O=C(O)C(=O)O [Oxalic acid] | 13419 mm^2 | 6.0% | – | – | –
O=C(O)CC(O)(CC(=O)O)C(=O)O [citric acid] | 9481 mm^2 | 33.6% | 32.9% | 9574 mm^2 | % benefit over water [2, 7]: 17.9%; Volume in mm^2 [2, 7]: 11717 mm^2; % benefit over water [2, 8]: 23.9%; Volume in mm^2 [2, 8]: 10871 mm^2; % benefit over water [2, 9]: 15.0%; Volume in mm^2 [2, 9]: 12136 mm^2; straightening benefit compared with the results with dry hair ([3]; 5% solution at pH 2 applied to wet hair): significantly reduced; straightening benefit compared with the results with dry hair ([3]; 5% solution at pH 3 applied to wet hair): significantly reduced
O=C(O)/C=C(\CC(=O)O)C(=O)O [trans Aconitic acid] | 8456 mm^2 | 40.8% | 17.3% | 11812 mm^2 | –
